Laboratory results from patent US20150315202A1, “CHLORIN DERIVATIVE USEFUL IN PHOTODYNAMIC THERAPY AND DIAGNOSIS” (RMW CHO GROUP LIMITED, priority 2012, published 2015).

What was measured:
[1] = system: naso pharyngeal carcinoma with extension to a lymph node in the left neck; test: In vivo studies Example 2: patient, oral chlorin e4 sodium plus laser and LED light; parameters: species or system human
Procedure: (§1) A patient with naso pharyngeal carcinoma with extension to a lymph node in the left neck, was treated successfully. The treatment consisted of three courses. For each course, five doses of 62.5-187.5 mg chlorin e4 sodium were administered orally over the course of eight days. 24-48 hours after each oral dose of chlorin e4 sodium, the patient was treated with laser and LED light having a wavelength of 660 nm and 760 nm.
(§2) Subsequently the patient was treated with a further course. Again, for the course, five doses of 62.5-187.5 mg chlorin e4 sodium were administered orally over the course of eight days. 24-48 hours after each oral dose of chlorin e4 sodium, the patient was treated with laser and LED light having a wavelength of 660 nm and 760 nm.

[2] = system: brain cancer with metastases in the lung and lymph nodes; test: In vivo studies Example 12: patient, oral chlorin e4 sodium plus laser and LED light; parameters: species or system human; conditions: after two courses
Procedure: A patient with brain cancer with metastases in the lung and lymph nodes, was treated successfully. […] The patient experienced occasional epileptic seizures and severe headaches. The treatment consisted of two courses. For each course, five doses of 62.5-187.5 mg chlorin e4 sodium were administered orally over the course of eight days. 24-48 hours after each oral dose of chlorin e4 sodium, the patient was treated with laser and LED light having a wavelength of 660 nm and 760 nm.

[3] = Absorption spectra of chlorin e4 sodium solutions; assay type: physicochemical; conditions: all solvents (ethanol, water, water + SDS)
Procedure: Absorption spectra were recorded using computerized spectrophotometers Hitachi 3400 (Japan) and SF-2000 (Russia). Fluorescence spectra were measured with a computerized spectrofluorimeter Perkin-Elmer MPF-44B. 10 mm wide quartz cuvettes were used for absorption and fluorescence measurements. Fluorescence was detected at a right angle to the excitation beam. The spectral bandwidth of the monochromator was 3 nm. […] The fluorescence quantum yields (ΦF) were determined using as a reference, solutions of TPPS (m-tetrakis(p-sulfonatophenyl)porphine) in ethanol. According to the literature, the most likely fluorescence quantum yield of TPPS in air-saturated water and ethanol is equal to 0.08 (K. Kalyanasundaram and M. Neumann-Spallart, Photophysical and redox properties of water soluble porphyrins in aqueous media, J. Phys. Chem., 1982, 86, 5163-5169; and A. T. Gradyushko, A. N. Sevchenko, K. N. Solovyov and M. P. Tsvirko, Energetics of photophysical processes in chlorophyll-like molecules, Photochem. Photobiol., 1970, 11, 387-400). The fluorescence of the samples was excited by the monochromatic light corresponding to the maximum of the Soret bands: 415 nm for TPPS in ethanol and 413 nm for TPPS in water, and 403 nm for chlorin e4 sodium in water and ethanol. The monochromator bandwidth was 3 nm. The fluorescence quantum yields (ΦF) were calculated using the following equation: […]

[4] = system: stage IVB Hodgkin's lymphoma with metastases; test: In vivo studies Example 4: patient, oral chlorin e4 sodium plus laser and LED light; parameters: species or system human
Procedure: as §1, with “stage IVB Hodgkin's lymphoma” for “naso pharyngeal carcinoma”, “metastases” for “extension to a lymph node”, “liver, lymphatic system, spleen, lung and bones,” for “left neck,”
as §2, with “further two courses.” for “further course.”, “for each” for “for the”

[5] = system: non-small cell lung cancer with metastases in the lymph nodes and bones; test: In vivo studies Example 8: patient, oral chlorin e4 sodium plus laser and LED light; parameters: species or system human
Procedure: A patient with non-small cell lung cancer with metastases in the lymph nodes and bones, was treated successfully. The treatment consisted of two courses. For each course, five doses of 62.5-187.5 mg chlorin e4 sodium were administered orally over the course of eight days. About 24 hours after each oral dose of chlorin e4 sodium, the patient was treated with laser and LED light having a wavelength of 660 nm and 760 nm.

[6] = Singlet oxygen detection by photosensitized oxygenation of DPIBF; assay type: physicochemical; conditions: ethanol, red light 660 nm
Description: The second method of singlet oxygen detection was based on photosensitized oxygenation of the singlet oxygen conjugate 1,3-diphenylisobenzofuran (DPIBF) (Acros Organics, United Kingdom). DPIBF chemically binds to two singlet oxygens (^1O2) (FIG. 3). This method was applied to chlorin e4 sodium solutions in ethanol. The major absorption band of DPIBF is located at 414-415 nm. The molar absorption coefficient in this maximum, εDPIBF, is known to be 23500 M^−1 cm^−1. Tested solutions were irradiated by the monochromatic light from a xenon lamp using the excitation system of the spectrofluorimeter Perkin-Elmer MPF-44B, the spectral width of the monochromator bandwidth corresponding to 5 nm. Radiant power was measured using the calibrated detector ThorLabs PM-100 (Germany). The singlet oxygen quantum yields (ΦΔ) were calculated according to the equation: […]

C=Cc1c(C)c2cc3nc(c(C)c4[nH]c(cc5nc(cc1[nH]2)C(C)=C5CC)c(C)c4C(=O)O)[C@@H](CCC(=O)O)[C@@H]3C [chlorin e4 sodium]
Response (ultrasound images and biopsies) ([1]; after the final (fourth) treatment course): complete response | Biopsy of the treated lymph node of the neck ([1]; immediately following three courses, confirmed ten months after treatment): no cancer cells were detected | Comparison of CT scans ([1]; one month before and ten months after treatment): no spread of tumours and that the size of the tumours was reduced | Patient status ([1]; two years and six months after starting, five months after completion of treatment): alive and well | Lymph nodes (PET/CT) [2]: not yet clear | Metabolic activity in the area of the brain tumour (PET/CT) [2]: no metabolic activity | Response in the lungs (PET/CT) [2]: complete response | Aggregation state from absorption spectra [3]: mostly monomeric | Response (PET/CT) ([4]; after a further two courses): good treatment response | Tumours in areas treated with light (CT) ([4]; after three courses): some tumours disappeared altogether and some tumours reduced in size | Survival time ([4]; life expectancy before treatment only two weeks): two years and two months | Patient status ([5]; 10 months after starting, seven months after completion of treatment): alive and well | Response of the lungs (PET/CT) ([5]; before and after two courses): many tumours disappearing and the remaining tumours showing no or low metabolic activity | Side effects ([5]; two courses): no side effects | Quantum yield of singlet oxygen generation [6]: 0.68±0.05
